Consider four compounds from patent US6683054B1, “Use of melagatran” (AstraZeneca AB, priority 1999, dated 2004).

For this assay, the system named is paw oedema. The experiment in a line: Carrageenan-induced paw oedema in rats (foot volume by water plethysmograph). It counts as in vivo, rat. The conditions noted are these: for % Inhibition after sub-plantar injection, 2 hours after / % Inhibition after sub-plantar injection, 4 hours after: Table 1; for % Inhibition after sub-plantar injection, 2 hours after: 2 hours after carrageenan; for % Inhibition after sub-plantar injection, 4 hours after: 4 hours after carrageenan. The text has this: Groups of five male Charles River CD rats in the weight range 180 to 240 g were used. On their arrival, rats were housed in controlled environment rooms and fed a standard diet for at least one week before use.
Rats were starved overnight before the test, although water was given ad libitum. A mark was made on the ankle joint of each rat, the day before the test, to indicate where the foot volume was to be measured.
Compounds were made up in the appropriate vehicle for dosing via either the subcutaneous (s.c.), intravenous (i.v.) or oral (p.o.) routes. Melagatran was dosed in water (20 μmol/kg) when given p.o., and in saline, and in cyclodextrin (40%), when given s.c. (0.7 to 2 μmol/kg). Drugs were administered in a dose volume of 5 mL/kg body weight for p.o. dosing or 1 to 2 mL/kg body weight for s.c. dosing. Control rats received the equivalent volume of vehicle.
A 1% solution of carrageenan in saline was prepared the day prior to the test. The carrageenan was suspended in saline and stirred vigorously on a magnetic stirrer for one hour. It was then stored at 4° C. until required. Thirty minutes after dosing, each rat was injected s.c. in the plantar region of the left hind foot with 0.1 mL of 1% carrageenan.
To reduce both discomfort to the rat and variability in the test, rats were housed on wood chip bedding in solid bottom cages. The rats had access to a solution of 5% glucose throughout the duration of the test.
The plethysmograph was calibrated using blocks of 2 mL and 4 mL mass before the first, and after the last, measurement at each time point.
Foot volumes were measured before dosing and up to 6 hours after the sub-plantar injection of carrageenan. The increase in foot volume for each rat was calculated using the difference between the individual foot volume at time zero, and at the various time points. The inhibition afforded by a treatment was expressed as a percentage inhibition of the mean absolute increase in foot volume in treated animals compared to control animals. Indomethacin at 10 mg/kg p.o. was always included as an internal standard. If indomethacin gave less than 30% inhibition at 4 h then the test was considered invalid.
(In the carrageenan paw model, swelling and tenderness develop within hours.)

Where [1] appears, read: Table 2, 2 μmol/kg s.c. in cyclodextrin.
[2] abbreviates: Table 2, 20 μmol/kg p.o. in water.
[3] abbreviates: Table 3, 2 μmol/kg s.c. in saline.
Where [4] appears, read: Table 4, 0.7 μmol/kg s.c. in saline.
[5] abbreviates: Table 4, 1.4 μmol/kg s.c. in saline.
Where [6] appears, read: Table 4, 2.0 μmol/kg s.c. in saline.

With `CC(C)Cc1ccc(C(C)C(=O)O)cc1` (stereo not shown) [Ibuprofen, reference compound], where the note is “10 mg/kg p.o.”, the “% Inhibition after sub-plantar injection, 2 hours after” value (from here on “% Inhibition … 2 hours after”) was found to be 22% and the “% Inhibition after sub-plantar injection, 4 hours after” value (shortened to “% Inhibition … 4 hours after”) was found to be 26%.

Turning to `C[C@@H]1C[C@H]2[C@@H]3CCC4=CC(=O)C=C[C@]4(C)[C@@]3(F)[C@@H](O)C[C@]2(C)[C@@]1(O)C(=O)CO` [Dexamethasone, reference compound], the “% Inhibition … 2 hours after” value is given as 47% (0.03 mg/kg p.o.) and 51% (0.3 mg/kg p.o.). Further, the “% Inhibition … 4 hours after” value came out at 74% (0.03 mg/kg p.o.) and 96% (0.3 mg/kg p.o.).

Turning to `N=C(N)c1ccc(CNC(=O)[C@@H]2CCN2C(=O)[C@H](NCC(=O)O)C2CCCCC2)cc1` [Melagatran, HOOC—CH2—(R)Cgl-Aze-Pab-H], the “% Inhibition after 1 hour” value by setting is: under setting [1], 29%; under setting [2], 14%; under setting [3], 39%; under setting [4], 39%; under setting [5], 65%; under setting [6], 76%. Also, the “% Inhibition after 2 hours” value was 13% under setting [1]; 17% under setting [2]; 8% under setting [3]; 9% under setting [4]; 5% under setting [5]; 17% under setting [6]. Moreover, the “% Inhibition after 3 hours” value under setting [1] worked out at 3%; the “% Inhibition after 3 hours” value under setting [2] was −14%; the “% Inhibition after 3 hours” value under setting [3] is given as 2%; the “% Inhibition after 3 hours” value under setting [4] worked out at 16%; the “% Inhibition after 3 hours” value under setting [5] is 7%; the “% Inhibition after 3 hours” value under setting [6] is on record as 19%. Besides, the “% Inhibition after 4 hours” value is, setting by setting: under setting [1], 13%; under setting [2], −2%; under setting [3], −8%. The “% Inhibition after 1.5 hours” value by setting is: under setting [4], −1%; under setting [5], 40%; under setting [6], 41%. Also, the “inhibition of the oedema” value (in saline, 2 μmol/kg s.c., after 1 h) was determined as 39%. In addition, the “inhibition of paw oedema, dose and time dependence (in words)” value (in saline, 0.7, 1.4 and 2 μmol/kg s.c., 1 to 3 hours) was “inhibited paw oedema in both a dose dependent, and time dependent, manner”. The “inhibiting paw oedema (in words)” value (orally 20 μmol/kg in water, 30 minutes prior to carrageenan, up to 6 h post dosing) was “ineffective”.

Regarding `COc1ccc2c(c1)c(CC(=O)O)c(C)n2C(=O)c1ccc(Cl)cc1` [Indomethacin, reference compound], under “10 mg/kg p.o.”, the “% Inhibition … 2 hours after” value is 43% and the “% Inhibition … 4 hours after” value is 50%. Besides, where the note is “Table 2, 10 mg/kg p.o.”, the “% Inhibition after 1 hour” value was −5%, the “% Inhibition after 2 hours” value was found to be 50%, the “% Inhibition after 3 hours” value is 39% and the “% Inhibition after 4 hours” value amounted to 12%. Further, for the setting “Table 3, 10 mg/kg p.o.”, the “% Inhibition after 1 hour” value stood at 15%, the “% Inhibition after 2 hours” value is reported as 2%, the “% Inhibition after 3 hours” value was found to be 29% and the “% Inhibition after 4 hours” value worked out at 18%.
